Measured values: the supplement of paper PMC10307832

Key:
Assay in all cases: relative viability (nuclei count vs DMSO), 5 days (fraction); higher = more cells survive
[1] = compound: C1CCC(CC1)N(CCNCCC2=C3C(=C(C=C2)O)NC(=O)CO3)C(=O)CCNCCC4=CC(=C(C=C4)Cl)Cl [AZ505] + Cc1cc(Nc2cc(N3CCN(C)CC3)nc(Sc3ccc(NC(=O)C4CC4)cc3)n2)n[nH]1 [Tozasertib] (partner 0.1 µM)
How it was run: (§1)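 For relative viability, nuclei counts in treated wells were divided by those in vehicle wells. Lung cancer cell lines had been pin-tool dosed in 1536-well plates the day after seeding and cultured for 5 days, then fixed and stained in one step (final 0.05% Triton X-100, 1% formaldehyde, 1 ug/ml Hoechst) and imaged at 4×. Doses were one drug alone or a fixed anchor-drug dose plus five library-drug doses (not always all listed) in √10 steps, and values are duplicate-plate medians.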

[2] = compound: Cn1c(=O)n(-c2ccc(C(C)(C)C#N)cc2)c2c3cc(-c4cnc5ccccc5c4)ccc3ncc21 [Dactolisib] + CC(C)C[C@H](NC(=O)[C@H](Cc1ccccc1)NC(=O)c1cnccn1)B(O)O [Bortezomib] (partner 0.002 µM)
How it was run: as §1

[3] = compound: C1CCC(CC1)N(CCNCCC2=C3C(=C(C=C2)O)NC(=O)CO3)C(=O)CCNCCC4=CC(=C(C=C4)Cl)Cl [AZ505] + N=C(N)NC(=N)NCCc1ccccc1 [Phenformin] (partner 250 µM)
How it was run: as §1

[4] = compound: Cn1c(=O)n(-c2ccc(C(C)(C)C#N)cc2)c2c3cc(-c4cnc5ccccc5c4)ccc3ncc21 [Dactolisib] + CS(=O)(=O)CCNCc1ccc(-c2ccc3ncnc(Nc4ccc(OCc5cccc(F)c5)c(Cl)c4)c3c2)o1 [Lapatinib] (partner 2 µM)
How it was run: as §1

Cell Line | relative viability ([1]; first compound 0.08 µM) | relative viability ([1]; first compound 0.253 µM) | relative viability ([1]; first compound 0.8 µM) | relative viability ([1]; first compound 2.53 µM) | relative viability ([1]; first compound 8 µM) | relative viability ([2]; first compound 0.002 µM) | relative viability ([2]; first compound 0.006325 µM) | relative viability ([2]; first compound 0.02 µM) | relative viability ([2]; first compound 0.06325 µM) | relative viability ([2]; first compound 0.2 µM) | relative viability ([3]; first compound 0.08 µM) | relative viability ([3]; first compound 0.253 µM) | relative viability ([3]; first compound 0.8 µM) | relative viability ([3]; first compound 2.53 µM) | relative viability ([3]; first compound 8 µM) | relative viability ([4]; first compound 0.002 µM) | relative viability ([4]; first compound 0.006325 µM) | relative viability ([4]; first compound 0.02 µM) | relative viability ([4]; first compound 0.06325 µM) | relative viability ([4]; first compound 0.2 µM)
HARA | 0.165 | 0.102 | 0.0957 | 0.106 | 0.0964 | 1.12 | 1.08 | 1.13 | 1.1 | 0.491 | 0.389 | 0.422 | 0.42 | 0.343 | 0.408 | 0.652 | 0.67 | 0.761 | 0.421 | 0.318
IA-LM |  |  |  |  |  | 0.828 | 0.691 | 0.511 | 0.145 | 0.0972 |  |  |  |  |  | 0.769 | 0.671 | 0.771 | 0.156 | 0.106
LCLC-103H | 0.508 | 0.504 | 0.434 | 0.461 | 0.459 | 1.03 | 1.14 | 0.964 | 0.743 | 0.71 | 0.321 | 0.292 | 0.318 | 0.381 | 0.378 |  |  |  |  | 
LK-2 | 0.17 | 0.167 | 0.197 | 0.167 | 0.184 |  |  |  |  |  | 0.387 | 0.43 | 0.514 | 0.713 | 0.427 | 0.804 | 0.831 | 0.807 | 0.474 | 0.235
NCI-H358 | 0.094 | 0.0964 | 0.0966 | 0.108 | 0.104 |  |  |  |  |  | 0.356 | 0.346 | 0.351 | 0.24 | 0.364 | 0.443 | 0.439 | 0.379 | 0.304 | 0.267
NCI-H441 | 0.564 | 0.546 | 0.625 | 0.534 | 0.589 | 0.523 | 0.457 | 0.305 | 0.157 | 0.196 | 0.742 | 0.814 | 0.905 | 0.907 | 0.786 |  |  |  |  | 
NCI-H522 | 0.459 | 0.552 | 0.488 | 0.603 | 0.674 |  |  |  |  |  | 0.526 | 0.521 | 0.61 | 0.732 | 0.626 |  |  |  |  | 
NCI-H1299 |  |  |  |  |  | 1.02 | 1.05 | 1.05 | 0.957 | 0.7 |  |  |  |  |  | 0.998 | 0.974 | 0.98 | 0.893 | 0.661
NCI-H1395 | 0.781 | 0.823 | 0.625 | 0.695 | 0.767 |  |  |  |  |  | 0.435 | 0.461 | 0.426 | 0.483 | 0.479 | 1 | 0.918 | 0.966 | 0.708 | 0.545
NCI-H1563 |  |  |  |  |  | 0.904 | 0.903 | 0.819 | 0.603 | 0.59 | 0.626 | 0.646 | 0.696 | 0.664 | 0.666 | 0.939 | 0.892 | 0.816 | 0.72 | 0.582
NCI-H1623 | 0.454 | 0.457 | 0.425 | 0.445 | 0.443 |  |  |  |  |  | 0.54 | 0.504 | 0.621 | 0.509 | 0.629 |  |  |  |  | 
NCI-H1648 | 0.469 | 0.581 | 0.408 | 0.562 | 0.703 |  |  |  |  |  |  |  |  |  |  |  |  |  |  | 
NCI-H1703 |  |  |  |  |  | 0.321 | 0.272 | 0.159 | 0.199 | 0.213 |  |  |  |  |  | 0.688 | 0.796 | 0.716 | 0.379 | 0.314
NCI-H1792 |  |  |  |  |  | 0.872 | 0.948 | 0.936 | 0.598 | 0.313 | 0.302 |  | 0.31 | 0.417 | 0.263 | 1.05 | 0.943 | 0.859 | 0.792 | 0.293
NCI-H1793 | 0.392 | 0.346 | 0.386 |  | 0.384 |  |  |  |  |  | 0.248 | 0.338 | 0.454 |  | 0.368 | 0.631 | 0.409 | 0.325 | 0.195 | 0.242
NCI-H1944 | 0.248 | 0.249 | 0.24 | 0.236 | 0.236 |  |  |  |  |  | 0.197 | 0.184 | 0.233 | 0.193 | 0.21 | 0.808 | 0.814 | 0.758 | 0.412 | 0.378
NCI-H2170 | 0.845 | 0.715 | 0.641 | 0.741 | 0.766 |  |  |  |  |  | 0.396 | 0.42 | 0.397 | 0.405 | 0.421 | 0.263 | 0.289 | 0.262 | 0.235 | 0.222
NCI-H2342 | 0.441 | 0.625 | 0.559 | 0.509 | 0.618 |  |  |  |  |  | 0.573 | 0.559 | 0.733 | 0.697 | 0.677 |  |  |  |  | 
SK-MES-1 | 0.853 | 0.863 | 0.898 | 0.785 | 0.884 |  |  |  |  |  | 0.485 | 0.618 | 0.643 | 0.67 | 0.601 | 0.476 | 0.452 | 0.428 | 0.352 | 0.296
SW 900 | 0.439 | 0.665 | 0.713 | 0.614 | 0.544 |  |  |  |  |  | 0.618 | 0.522 | 0.588 | 0.695 | 0.647 |  |  |  |  | 
